In patent US7517857B2, “Immune-modulating peptide” (POSCO, priority 2002, dated 2009):
Where a SMILES comes first, the peptide text is derived from it. Where no end group is shown, it is not given here. [ ]: non-standard residue; d: D form.

What was measured:
[1] = test system: human neutrophils; assay: Superoxide generation in human neutrophils (cytochrome c reduction); assay type: cell-based; conditions: for O^2− (nmol/10^6 cells), superoxide generation: cytochrome c reduction
In short: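 Neutrophils isolated from donor leukocyte concentrates by dextran sedimentation, hypotonic erythrocyte lysis and lymphocyte separation gradient; 1×10^6 cells in RPMI 1640 preincubated 1 min at 37° C with 50 μM cytochrome c, then peptide added. Superoxide quantified as cytochrome c reduction, absorbance change at 550 nm over 5 min at 1-min intervals; ≥4 independent experiments.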

[2] = target: T1, FPRL1 (Homo sapiens, UniProt P25090); assay: Displacement of 125I-labeled WKYMVm binding to FPRL1 (FPRL1-expressing RBL-2H3 cells); conditions: FIG. 2B
T1 construct: expressed in transfected cells; host or cells: RBL-2H3 (rat basophilic leukemia) cells, G418-selected
T1 sequence (P25090 1-351): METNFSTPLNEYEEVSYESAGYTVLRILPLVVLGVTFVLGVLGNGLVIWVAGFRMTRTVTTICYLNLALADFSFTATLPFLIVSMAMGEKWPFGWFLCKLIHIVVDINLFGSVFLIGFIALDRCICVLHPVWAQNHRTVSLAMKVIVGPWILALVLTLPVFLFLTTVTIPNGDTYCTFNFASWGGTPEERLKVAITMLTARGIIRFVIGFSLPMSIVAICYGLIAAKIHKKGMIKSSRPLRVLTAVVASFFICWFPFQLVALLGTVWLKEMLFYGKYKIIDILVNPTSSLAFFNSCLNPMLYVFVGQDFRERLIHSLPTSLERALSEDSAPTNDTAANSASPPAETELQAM
Procedure: From the finding that some of the peptides (WKGMVm (SEQ ID NO: 1), WKRMVm (SEQ ID NO: 11), D-Met^6 substituted peptides) could not induce a cytosolic calcium increase, it was checked whether the peptides can bind to FPR or not. Displacement of ^125I-labeled WKYMVm binding to FPR or FPRL1 by the peptides was monitored. FPR-expressing RBL-2H3 cells were incubated with [^125I] WKYMVm in the absence or presence of increasing amounts of unlabeled WKYMVm or the peptides of SEQ ID NOs: 1 to 24.
A ligand binding analysis was performed as modified from the previous report (16). The radioiodinated WKYMVm (^125I-labeled) was purchased from NEN Lifesciences (Boston, Mass.). Briefly, FPR- or FPRL1-expressing RBL-2H3 cells were seeded into 1×10^5 cells per well of a 24-well plate and cultured overnight. After blocking the cells with a blocking buffer (33 mM HEPES, pH 7.5, 0.1% BSA in RPMI) for 2 hr, a single concentration of ^125I-labeled WKYMVm was added to cells with a binding buffer (PBS containing 0.1% BSA) in the absence or presence of 50 μM unlabelled peptides and incubated for 3 hr at 4° C. with continuous shaking. Then the samples were washed 5 times with ice-cold binding buffer, and 200 μl of lysis buffer (20 mM Tris, pH 7.5, 1% Triton X-100) was added to each well. After 20 min of lysis at room temperature, the lysates were collected. Bound ^125I-labeled WKYMVm was measured for radioactivity for a γ-ray counter.

[3] = target: T2, FPR (Homo sapiens, UniProt P21462); assay: Exocytosis: β-hexosaminidase secretion in FPR-expressing RBL-2H3 cells; assay type: cell-based; conditions: for granule secretion / β-hexosaminidase release (words): FPR cells, 10 μM of each peptide (WKYMVm also various concentrations)
T2 construct: expressed in transfected cells; host or cells: RBL-2H3 (rat basophilic leukemia) cells, G418-selected
T2 sequence (P21462 1-350): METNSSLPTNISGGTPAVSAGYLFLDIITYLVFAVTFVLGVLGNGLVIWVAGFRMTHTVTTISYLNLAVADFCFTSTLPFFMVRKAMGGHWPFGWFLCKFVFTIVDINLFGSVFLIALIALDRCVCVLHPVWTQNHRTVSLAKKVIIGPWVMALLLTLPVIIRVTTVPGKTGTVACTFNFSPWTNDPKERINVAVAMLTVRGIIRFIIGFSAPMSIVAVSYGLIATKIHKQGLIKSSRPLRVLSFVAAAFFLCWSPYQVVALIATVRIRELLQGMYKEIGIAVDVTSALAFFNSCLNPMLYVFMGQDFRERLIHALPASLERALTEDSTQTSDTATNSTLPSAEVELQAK
Procedure: Granule secretion is one of the most important function of mast cells (20). The effect of WKYMVm on granule secretion was checked by measuring β-hexosaminidase secretion as described above (18). Briefly, RBL-2H3 cells (2×10^5/well) expressing FPR or FPRL1 were cultured overnight in a 24-well tissue culture plate. The cells were washed twice with Tyrode's buffer (137 mM NaCl, 12 mM NaHCO3, 5.6 mM glucose, 2.7 mM KCl, 1 mM CaCl2, 0.5 mM MgCl2, 0.4 mM NaH2PO4, 0.1g/100 ml BSA, and 25 mM HEPES, pH 7.4) and stimulated with each peptide. Various concentrations of WKYMVm were treated in FPR- or FPRL1-expressing RBL-2H3 cells (FIG. 5A). 1 μM of WKYMVm was used to stimulate two cell lines in the absence or presence of 10 μM BAPTA/AM (FIG. 5B). The reaction was terminated 20 min after stimulation by placing the plate on ice. Secretion of β-hexosaminidase into the medium was determined by incubating 50 μl of supernatant or cell lysate with 25 μl of 5 mM p-nitrophenyl-N-acetyl-β-D-glucosamide in 0.1 M sodium citrate buffer (pH 3.8) at 37° C. for 2 hr. At the end of the incubation, 50 μl of 0.4 M Na2CO3 were added. Absorbance was monitored at 405 nm. Data are means ±S.E. of a single representative of three experiments performed in triplicate. Values (means ±S.E.) were expressed as a percent of total β-hexosaminidase present in the cells.
From the new finding that cytosolic calcium release was induced by WKYMVm and many of the substituted peptides of WKYMVm but not by some of them (WKGMVm (SEQ ID NO: 1), WKRMVm (SEQ ID NO: 11), D-Met^6 substituted peptides), the effect of the peptides on granule secretion in RBL cells was checked. 10 μM of each peptide was treated in FPR- (FIG. 6A) or FPRL1-expressing RBL-2H3 cells (FIG. 6B). The peptide-induced secretion of β-hexosaminidase was determined as above. Data are means ±S.E. of a single representative of three experiments performed in triplicate.

| Molecule | O^2− (nmol/10^6 cells), superoxide generation ([1]; peptide 100 nM) | O^2− (nmol/10^6 cells), superoxide generation ([1]; peptide 10 μM) | inhibition of [^125I] WKYMVm binding [2] | granule secretion / β-hexosaminidase release (words) [3] | concentration showing the maximal activity on superoxide generation ([1]; data not shown) | O^2− (nmol/10^6 cells), superoxide generation ([1]; peptide 100 nM, listed as wkymvm-NH2) | O^2− (nmol/10^6 cells), superoxide generation ([1]; peptide 10 μM, listed as wkymvm-NH2) | concentration showing maximal β-hexosaminidase release ([3]; FPR-expressing RBL-2H3 cells) |
| --- | --- | --- | --- | --- | --- | --- | --- | --- |
| CSCC[C@H](NC(=O)CNC(=O)[C@H](CCCCN)NC(=O)[C@@H](N)Cc1c[nH]c2ccccc12)C(=O)N[C@H](C(=O)N[C@H](CCSC)C(N)=O)C(C)C [WKGMVm-NH2, Trp-Lys-Gly-Met-Val-D-Met-NH2] (H-WKGMV[dM]-NH2; N-terminus assumed) | 14.2 ± 3.42 nmol/10^6 cells | 37.6 ± 4.57 nmol/10^6 cells | inhibited binding of [^125I] WKYMVm in a concentration-dependent manner | could not effect granule secretion |  |  |  |  |
| CSCC[C@H](NC(=O)[C@H](CCCNC(=N)N)NC(=O)[C@H](CCCCN)NC(=O)[C@@H](N)Cc1c[nH]c2ccccc12)C(=O)N[C@H](C(=O)N[C@H](CCSC)C(N)=O)C(C)C [WKRMVm-NH2, Trp-Lys-Arg-Met-Val-D-Met-NH2] (H-WKRMV[dM]-NH2; N-terminus assumed) | 15.9 ± 2.48 nmol/10^6 cells | 41.7 ± 8.32 nmol/10^6 cells | inhibited binding of [^125I] WKYMVm in a concentration-dependent manner | could not effect granule secretion |  |  |  |  |
| CSCC[C@H](NC(=O)[C@H](Cc1ccc(O)cc1)NC(=O)[C@H](CCCCN)NC(=O)[C@@H](N)Cc1c[nH]c2ccccc12)C(=O)N[C@H](C(=O)N[C@H](CCSC)C(N)=O)C(C)C [WKYMVm-NH2, Trp-Lys-Tyr-Met-Val-D-Met-NH2, reference compound] | 37.3 ± 6.94 nmol/10^6 cells | 39.0 ± 3.58 nmol/10^6 cells | inhibited binding of [^125I] WKYMVm in a concentration-dependent manner | caused β-hexosaminidase release in a concentration-dependent manner | 100 nM | 0 nmol/10^6 cells | 0 nmol/10^6 cells | 100 nM |
| WKYMVE-NH2 [WKYMVE-NH2, Trp-Lys-Tyr-Met-Val-Glu-NH2] | 5.0 ± 0.43 nmol/10^6 cells | 33.6 ± 6.43 nmol/10^6 cells |  |  |  |  |  |  |
| WKYMVR-NH2 [WKYMVR-NH2, Trp-Lys-Tyr-Met-Val-Arg-NH2] | 16.3 ± 1.57 nmol/10^6 cells | 44.8 ± 3.65 nmol/10^6 cells |  |  |  |  |  |  |
